According to ChEMBL document CHEMBL5604063, “ASAP - DENV-2 NS2B-NS3 protease fluorescence dose response” (2024):
Where “and” joins values, the source holds several entries; their conditions need not be identical. Identical values can stand only once.

Columns and labels:
[1] = target: T1, Genome polyprotein (dengue virus type 2, UniProt P29990); format: functional, Thailand/16681/1984
[2] = target: T1, Genome polyprotein; format: functional, Thailand/16681/1984; remark: listed apart in the source

T1 sequence (P29990 1346-1475 limits assumed): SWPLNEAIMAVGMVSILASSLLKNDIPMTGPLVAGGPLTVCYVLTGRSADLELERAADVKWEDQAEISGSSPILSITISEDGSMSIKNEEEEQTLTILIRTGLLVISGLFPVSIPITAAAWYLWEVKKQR
T1 sequence (P29990 1476-2093 limits assumed): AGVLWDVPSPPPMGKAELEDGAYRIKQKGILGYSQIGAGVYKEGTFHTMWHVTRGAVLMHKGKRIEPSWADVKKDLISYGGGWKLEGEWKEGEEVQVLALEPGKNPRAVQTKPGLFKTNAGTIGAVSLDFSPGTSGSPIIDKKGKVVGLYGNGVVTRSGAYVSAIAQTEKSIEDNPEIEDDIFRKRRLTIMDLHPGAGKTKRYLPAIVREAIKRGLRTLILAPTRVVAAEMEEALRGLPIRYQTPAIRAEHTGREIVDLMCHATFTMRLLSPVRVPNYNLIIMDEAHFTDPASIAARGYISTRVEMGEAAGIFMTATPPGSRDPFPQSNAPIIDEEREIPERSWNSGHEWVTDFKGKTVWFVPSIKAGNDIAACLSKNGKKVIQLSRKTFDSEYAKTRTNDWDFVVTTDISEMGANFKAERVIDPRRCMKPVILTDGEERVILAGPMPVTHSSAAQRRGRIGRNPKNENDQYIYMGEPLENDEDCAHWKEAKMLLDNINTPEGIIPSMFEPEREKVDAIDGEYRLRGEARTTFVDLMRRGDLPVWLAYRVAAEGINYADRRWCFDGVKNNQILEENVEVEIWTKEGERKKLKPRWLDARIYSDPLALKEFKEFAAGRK

SMILES	IC50 [1]	IC50 [2]
Brc1csc(CNCCc2nnc[nH]2)c1	> 99.5 µM	> 100 µM
Cc1cc(C(=O)Nc2cccc(CN)c2)c2cnn(-c3ccc(F)cc3)c2n1	> 99.5 µM	> 100 µM
COCc1cc(NC(=O)OCc2ccccc2)cc(C(=O)Nc2cccc(CN)c2)c1	> 99.5 µM	> 100 µM
NCc1cccc(NC(=O)c2cc(Cl)cc(Cl)c2)c1	> 99.5 µM	> 100 µM
CC(C)c1cc(NC(=O)OCc2ccccc2)cc(C(=O)Nc2cccc(CN)c2)c1	66.9 µM	> 100 µM
CN(C)Cc1cc(Cl)cc(C(=O)Nc2cccc(CN)c2)c1	> 99.5 µM	> 100 µM
CCn1c(=O)c(N2CC[C@H](CO)C2)nc2ccc(C(=O)N(C)C)cc21	> 99.5 µM	> 100 µM
NCc1ccc(I)c(NC(=O)c2cc(Cl)cc(NC(=O)OCc3ccccc3)c2)c1	52.1 µM	> 100 µM
O=C(Nc1cc(Cl)cc(C(=O)Nc2cccc([C@H]3C[C@H]3C(=O)O)c2)c1)OCc1ccccc1	19.6 µM and 25.7 µM and 26.9 µM and 24.8 µM	12.3 µM (3×) and 10.2 µM and 15.6 µM and 14.8 µM
NCc1cccc(NC(=O)c2cc(NC(=O)OCc3ccccc3)cc(C3CC3)c2)c1	76.1 µM	> 100 µM
C[C@H]1CN(C)C[C@@H](C(=O)Nc2cccc(CN)c2)O1	> 99.5 µM	> 100 µM
Cc1cc(NC(=O)OCc2ccccc2)cc(C(=O)Nc2cccc(CN)c2)c1	> 99.5 µM	> 100 µM
O=C(O)COc1cccc(NC(=O)c2cc(Cl)cc(NC(=O)OCc3ccccc3)c2)c1	45.5 µM	28 µM and 22.5 µM
C[C@H]1C[C@@H](C(=O)Nc2cccc(CN)c2)CC(=O)N1	> 99.5 µM	> 100 µM
O=C1NC[C@H](c2ccc(OCc3ccccc3)c(Br)c2)N1C(=O)OCc1ccccc1	> 99.5 µM	> 100 µM
O=Cc1cc(Cl)cc(NC(=O)OCc2ccccc2)c1	> 99.5 µM	> 100 µM
CCn1c(=O)c(N2CC[C@H](CO)C2)nc2cc(C(=O)O)ccc21	> 99.5 µM	> 100 µM
NCc1cccc(NC(=O)C2CCNCC2)c1	> 99.5 µM	> 100 µM
NCc1cc(Br)cc(NC(=O)c2cc(Cl)cc(NC(=O)OCc3ccccc3)c2)c1	> 99.5 µM	> 100 µM
CC1(C)CCC(F)(F)C[C@H]1C(=O)Nc1cccc(CN)c1	> 99.5 µM	> 100 µM
OCCCCCc1nc(-c2ccc(Br)o2)no1	> 99.5 µM	> 100 µM
CCn1ncc2c(C(=O)Nc3cccc(CN)c3)cc(C)nc21	> 99.5 µM	> 100 µM
Cc1cc(C(=O)Nc2cccc(CN)c2)nc(C)n1	> 99.5 µM	> 100 µM
O=C(Nc1cc(Cl)cc(C(=O)Nc2cccc(CN3CCCC3=O)c2)c1)OCc1ccccc1	> 99.5 µM	> 100 µM

SMILES	IC50 [1]	IC50 [2]
O=C(Nc1cc(Cl)cc(C(=O)Nc2ccc3c(c2)OCCNC3)c1)OCc1ccccc1	> 99.5 µM	> 100 µM
Cc1cc(C(=O)Nc2cccc(CN)c2)cc(O)n1	> 99.5 µM	> 100 µM
Cc1ccc(S(=O)(=O)CCCn2ccc3sccc3c2=O)cc1	> 99.5 µM	> 100 µM
c1coc(CSCc2nc(-c3nc[nH]n3)no2)c1	> 99.5 µM	> 100 µM
NCc1cccc(NC(=O)c2cc(NC(=O)OCc3ccccc3)cc(C(F)(F)F)c2)c1	> 99.5 µM	> 100 µM
CN(C)CCc1ccc(NC(=O)c2cc(Cl)cc(NC(=O)OCc3ccccc3)c2)cc1	> 99.5 µM	> 100 µM
N#CCc1cccc(NC(=O)c2cc(Cl)cc(NC(=O)OCc3ccccc3)c2)c1	> 99.5 µM	> 100 µM
CCn1c(=O)c(N2CC[C@H](CO)C2)nc2cc(C(=O)N(C)C)ccc21	> 99.5 µM	> 100 µM
COc1ccc2nc(C)cc(C(=O)Nc3cccc(CN)c3)c2c1	> 99.5 µM	> 100 µM
CC(C)(C)OC(=O)NCc1ccc(I)c(NC(=O)c2cc(Cl)cc(NC(=O)OCc3ccccc3)c2)c1	> 99.5 µM	> 100 µM
NCc1cccc(NC(=O)c2cncc(Cl)c2)c1	> 99.5 µM	> 100 µM
CNC(=O)[C@H](Nc1ccccn1)c1cc(Cl)cc(CN)c1	> 99.5 µM	> 100 µM
O=C(Nc1cc(Cl)cc(C(=O)Nc2ccc(CCN3CCOCC3)cc2)c1)OCc1ccccc1	> 99.5 µM	> 100 µM
Cc1cc(C(=O)Nc2cccc(CN)c2)c2sc(N)nc2n1	> 99.5 µM	> 100 µM
Cc1cc(C(=O)Nc2cccc(CN)c2)c2c(C)n[nH]c2n1	> 99.5 µM	> 100 µM
Cc1cc(C(=O)Nc2cccc(CN)c2)cc(NCc2cnn(C)c2)n1	> 99.5 µM	> 100 µM
O=C(Nc1ccc2c(c1)CNC2)c1cc(O)nc(C2CC2)c1	> 99.5 µM	> 100 µM
N[C@H]1CC[C@H](c2ccc(NC(=O)c3cc(Cl)cc(NC(=O)OCc4ccccc4)c3)cc2)C1	10.2 µM and 8.32 µM and 13 µM	84.2 µM
Brc1cnc(Sc2ncc[nH]2)nc1	> 99.5 µM	> 100 µM
C[C@H]1CN(C)C[C@H](C(=O)Nc2cccc(CN)c2)O1	> 99.5 µM	> 100 µM
CCn1c(=O)c(N2CC[C@H](CO)C2)nc2cc(C(=O)NS(C)(=O)=O)ccc21	> 99.5 µM	> 100 µM
CCNC(=O)c1ccc2nc(N3CC[C@H](CO)C3)c(=O)n(CC)c2c1	90.4 µM	> 100 µM
Cc1cc(C(=O)N[C@H](CC(=O)Nc2cccc(CN)c2)c2ccc(OCc3ccccc3)c(Br)c2)sn1	16.8 µM and 25.3 µM	> 100 µM
CS(=O)(=O)Nc1cccc(NC(=O)c2cc(Cl)cc(NC(=O)OCc3ccccc3)c2)c1	> 99.5 µM	> 100 µM

SMILES	IC50 [1]	IC50 [2]
CCn1c(=O)c(N2CC[C@H](CO)C2)nc2cc(C(=O)NCc3ccccc3)ccc21	> 99.5 µM	> 100 µM
CN(C)CC[C@H](NC(=O)c1cc(Cl)cc(NC(=O)OCc2ccccc2)c1)c1ccccc1	> 99.5 µM	> 100 µM
NCc1cc(NC(=O)c2cc(Cl)cc(NC(=O)OCc3ccccc3)c2)cc(C2CC2)c1	72 µM	> 100 µM
CCc1cccc(NC(=O)[C@]2(Oc3ccc(Br)cc3)CCNC3(CC3)C2)c1	> 99.5 µM	> 100 µM
CCOc1cccc(-c2ccc(NS(=O)(=O)c3cc(F)c(Cl)cc3C(=O)O)cc2)c1	9.4 µM	7.73 µM
CS(=O)(=O)c1cccc(NC(=O)c2cc(Cl)cc(NC(=O)OCc3ccccc3)c2)c1	> 99.5 µM	> 100 µM
C[C@H]1CNC[C@@H]1c1ccc(NC(=O)c2cc(Cl)cc(NC(=O)OCc3ccccc3)c2)cc1	22.4 µM	96.6 µM
CCn1c(=O)c(N2CC[C@@H](CO)C2)nc2ccc(C(=O)O)cc21	> 99.5 µM	> 100 µM
CCNC(=O)c1ccc2c(c1)nc(N1CC[C@H](CO)C1)c(=O)n2CC	> 99.5 µM	> 100 µM
O=C(Nc1cc(Cl)cc(C(=O)Nc2ccc([C@]34CNC[C@H]3C4)cc2)c1)OCc1ccccc1	> 99.5 µM	> 100 µM
C[C@H]1Oc2ccc(NC(=O)c3cc(Cl)cc(NC(=O)OCc4ccccc4)c3)cc2NC1=O	> 99.5 µM	> 100 µM
NCc1cccc(NC(=O)[C@H]2CCOC3(CCC3)C2)c1	> 99.5 µM	> 100 µM
C[C@H]1CN(Cc2ccccc2)C[C@@H](C(=O)Nc2cccc(CN)c2)O1	> 99.5 µM	> 100 µM
Cc1cc(Cl)cc(C(=O)Nc2cccc(CN)c2)n1	> 99.5 µM	> 100 µM
COC1(C(=O)N[C@H](CC(=O)Nc2cccc(CN)c2)c2ccc(OCc3ccccc3)c(Br)c2)CC1	> 99.5 µM	> 100 µM
O=S(=O)(Cc1nnc(Cc2ccccc2)o1)c1ccc(O)cc1	> 99.5 µM	> 100 µM
COC(=O)[C@]12CC[C@](C(=O)Nc3cccc(CN)c3)(COC1)C2	> 99.5 µM	> 100 µM
CN1CCc2c(cccc2NC(=O)c2cc(Cl)cc(NC(=O)OCc3ccccc3)c2)C1	> 99.5 µM	> 100 µM
N#Cc1cc(NC(=O)OCc2ccccc2)cc(C(=O)Nc2cccc(CN)c2)c1	> 99.5 µM	> 100 µM
Cc1cc(C(=O)Nc2cccc(CN)c2)c2c(n1)CCCC2	> 99.5 µM	> 100 µM
NCc1cccc(NC(=O)[C@@H]2CCCCN2)c1	> 99.5 µM	> 100 µM
C[C@H]1C[C@@H](C(=O)Nc2cccc(CN)c2)CCO1	> 99.5 µM	> 100 µM
